The values that follow come from PMC6764124 (Journal of Neuroinflammation, 2019).

Structures are written as SMILES. Like-named read-outs stand apart in the source and are kept apart here.

For series [1], the system named is latent HIV in T cells. Also on record: method as in PMID 29267399. Particulars: cited from earlier work.
Series [2] has as its system HIVE mouse model. Also on record: method as in PMID 26851503. The following applies: cited from earlier work.
Series [3] deals with HIV-infected individuals. Also on record: method as in earlier work. Particulars: cited from earlier work.
The subject of series [4] is latent HIV-1 in primary human Mϕ. Briefly: PMA-induced reactivation of HIV-1 from latent primary human macrophages (p24 ELISA). The format is cell-based. On the procedure: Primary human Mϕ were prepared as described above and infected with an MOI of 0.5 with HIV-1BaL for 4 h prior to removal of virus and culture in virus-free medium. Supernatants were collected every 5 days, and extracellular p24 production was monitored (p24 ELISA, ABL, Inc.). Fresh culture medium was added to cultures every 5 days as supernatants were collected for p24 analysis. […] After 24 h post-reactivation, cellular supernatants were collected, and extracellular reactivated p24 was quantified (p24 ELISA). Percent inhibition of reactivation was calculated versus no drug controls, and EC50/90 were calculated as previously described.

Series [5] deals with HLA-DR and CD163 in primary human Mϕ. Briefly: HIV-induced upregulation of activation markers HLA-DR and CD163 in primary human macrophages. It counts as cell-based. An excerpt: Mϕ and monocytes were isolated as previously described. […] Cells were maintained for 6 days before viral quantification (p24-ELISA). For in vitro activation marker studies, CD14^+ monocytes or fully differentiated (CD14^−/CD11b^+) Mϕ were used. […] The method used to differentiate Mϕ (CD14^−/CD11b^+) has been validated by our group to ensure that these cells are no longer expressing monocyte marker CD14 and are mature Mϕ (CD11b expression). […] Miltenyi Biotec, San Diego, CA). Mϕ and monocytes were treated with various concentrations of drug for 6 days and stained with Near-IR live/dead dye and quantified by FACS. Antiviral potency was calculated as previously described. […] Cells were harvested and stained for CD14^+ (FITC)/CD16^+ (APC) to quantify HIV-induced activation or impact of drugs on block of these markers.

Series [6] is described as follows: Pharmacokinetics of baricitinib in mouse plasma and brain after single SC dose (LC-MS/MS). The following applies: for Cmax: SCID mice. The format is in vivo, SCID mice. On the procedure:
One, 4, 8, and 24 h after drug inoculation, mice were sacrificed and whole blood was collected immediately followed by cardiac perfusion with PBS prior to the extraction of brain tissues. After brain extraction, posterior fossa (the cerebellum and brainstem) was taken, snap frozen, and stored at − 70 °C. Posterior fossa from each mouse was then weighed and homogenized in a mixed water and methanol (2:1) solution. The homogenates were then centrifuged, and the pellet discarded. The supernatant was dried by evaporation using nitrogen gas, resuspended in 1 mL water, and put through Isolute-XL C18 columns (Biotage, Uppsala, Sweden). Drug was then eluted with acetonitrile and subsequently dried. […] Chromatographic separation was performed by Ultimate 3000 LC system (Thermo Scientific, MA, USA), on a Kinetex XB-C18 column (50 × 2.1 mm) with a 2.6-μm particle size (Phenomenex, CA, USA). The mobile phase A consisted of 0.1% formic acid in water, and the mobile phase B consisted of methanol. Isocratic elution was used for the separation with mobile phase A:B at 25:75 (v/v). The column was maintained at ambient temperature. The flow rate was maintained at 250 μL/min, and a 20-μL injection was used. An API5000 triple quadrupole mass spectrometer (ABsciex, MA, USA) was used for detection, with electrospray ionization in positive ion mode. The mass spectrum parameters for the analytes were set as follows: ion spray voltage, 5500 V; curtain gas, 25 psi; ion source gas 1, 40 psi; ion source gas 2, 40 psi; source temperature, 500 °C; and collision gas, 5 psi. […] Analyst software version 1.5.2 was used to operate the mass spectrometer and to perform data analysis. […] The calibration curves had r^2 value greater than 0.99.

The subject of series [7] is non-dividing p24+ primary CD4+ T cells. Briefly: Frequency of non-dividing p24+ latent primary CD4+ T cells in vitro. It counts as cell-based, human.
Series [8] concerns J-lat T cells. Briefly: TNF-α-induced reactivation of latent HIV-1 in J-lat T cells. It counts as cell-based, human.
Details of series [9]: method as in Olumiant.com. The following applies: at concentrations more than 2 logs above concentrations in the murine model; ref Olumiant.com; cited from earlier work.
Series [10] concerns HIV replication in primary PBM cells. Briefly: Antiviral activity in activated peripheral blood mononuclear (PBM) cells. The format is cell-based, HIV-1. Particulars: for EC90: read-out: EC90 inhibition of HIV replication in PBM cells.
For series [11], the system named is HIV-1baL. Put plainly: Antiviral activity in primary human macrophages (p24 ELISA). The format is cell-based. The following applies: for EC90: read-out: EC90 inhibition of HIV replication in macrophages. An excerpt:
Mϕ and monocytes were isolated as previously described. […] Cells were maintained for 6 days before viral quantification (p24-ELISA). For in vitro activation marker studies, CD14^+ monocytes or fully differentiated (CD14^−/CD11b^+) Mϕ were used. Monocytes were used as a model to mimic HIV-induced activation that transpires in the periphery, wherein presence or internalization of HIV-1 in monocytes confers activation (CD14^+/CD16^+) and subsequent trafficking of “Trojan horse” monocytes across and within the BBB [11, 12]. The method used to differentiate Mϕ (CD14^−/CD11b^+) has been validated by our group to ensure that these cells are no longer expressing monocyte marker CD14 and are mature Mϕ (CD11b expression). Mϕ or monocytes were treated with various concentrations of drug prior to infection (HIV-1baL) and maintained for 3 days before quantification of HLA-DR, CD163 (Mϕ), or CD14/CD16 (monocytes; Miltenyi Biotec, San Diego, CA). Mϕ and monocytes were treated with various concentrations of drug for 6 days and stained with Near-IR live/dead dye and quantified by FACS. Antiviral potency was calculated as previously described.
(ELISA stands for enzyme-linked immunosorbent assay.)

Series [12] deals with HAND mice (IC injection of HIV-infected human MDM). Briefly: Brain HAND markers by flow cytometry in SCID mouse HAND model. The format is in vivo. The following applies: day 14, versus untreated HAND mice. As for the experimental part: Four-week-old B6.CB17-Prkdc^scid/SzJ (SCID) male mice were injected IC with 30 μL of HIV-infected MDMs suspended in 0.9% saline, directly into the frontal lobe of the right hemisphere. The injection was done free-handed (without a stereotactic device). The injection is performed with a syringe that allows a very slow rate of infusion. We have verified the injection site with a histological staining in our previously published works, which is in the basal ganglia as described in Koneru et al.. Injections were performed on day 0 (D0). Treatments (baricitinib or saline) were given subcutaneously (SC).
Fourteen days after IC MDM inoculation, mice were sacrificed and brain samples were harvested and placed in a tissue preservative solution (Miltenyi, Bergisch Gladbach, Germany). Samples were then dissociated using a commercial kit and a gentleMacs dissociator (Miltenyi) into single cell suspensions. Cells were then washed in 2% BSA/PBS buffer and incubated with the following: (1) anti-murine CD45-Vioblue (1:10 dilution) and anti-murine MHCII primary antibody (1:500) followed by APC conjugated secondary antibody (1:500 dilution), or isotype-only controls; (2) GFAP-FITC (1:750 dilution 1′ antibody and 1:1000 2′ 488 (FITC) antibody (Abcam, Cambridge, UK); or (3) human (non-murine cross-reactive) CD163-APC (Miltenyi Biotec) for 30 min (Sigma Aldrich, St. Louis, MO). Cells were washed twice in 2% BSA/PBS and fixed with 2% paraformaldehyde for 15 min. Cells were washed twice in 2% BSA/PBS and analyzed for double positive cells by flow cytometry (Macs Quant analyzer and MacsQuantify software, Miltenyi Biotec).
Total events were collected using forward scatter (FSC) and side scatter […] followed by doublet discrimination (FSC-area versus FSC-height) using a MacsQuant flow cytometer (Miltenyi). No primary FSC/SSC gate was established, to allow all events to be collected within the heterogeneous size and granularity of the brain cells. GFAP^+ events were collected with gates and voltages established using 2′ antibody only. GFAP^+ low granularity gate was established with events up to one-log shift from negative population, and GFAP^+ high granularity (activated astrocytes) was established with events greater than two-log shift from negative population. MHCII and CD45 (mouse mononuclear phagocytes) expression were quantified based on quadrant gating for MHCII^+/CD45^−, CD45^+MHCII^−, MHCII^+/CD45^+, or MHCII^−/CD45^−. CD163^+ events (human Mϕ) were collected with gates established from isotype-only controls. Percentages and total events were collected.

For `N#CC[C@H](C1CCCC1)n1cc(-c2ncnc3[nH]ccc23)cn1` [ruxolitinib], the “Reactivation of latent HIV from T cells” value in [1] is “block the reactivation”. Besides, the “Effect on HIVE in mouse model” value in series [2] is “ameliorates HIVE”. Further, in [3] (HIV-infected, cART-suppressed individuals, versus control cART group), the Safety and tolerability result was “safe and well-tolerated”. Further, in [3] (ruxolitinib arm versus cART group), the “sCD14 (clinical marker for monocyte activation)” value is listed as “significant reduction”.
For the molecule `CCS(=O)(=O)N1CC(CC#N)(n2cc(-c3ncnc4[nH]ccc34)cn2)C1` [Baricitinib], the EC90 (commonly the concentration at which the effect reaches the 90% level) is 0.7 ± 0.1 µM in series [4] (Macrophage, latent primary human macrophages, 50 ng/mL PMA, 24 h, read-out: EC90 inhibition of PMA induced reactivation); 1.2 µM in series [5] (Macrophage, primary human macrophages, read-out: EC90 inhibition of HIV-induced HLA-DR and CD163); 0.7 ± 0.08 µM in series [7] (Homo sapiens, non-dividing p24+ primary CD4+ T cells, read-out: EC90 reduction of non dividing latent CD4 T cells); 1.1 ± 0.3 µM in series [8] (Homo sapiens, T-cell, read-out: EC90 inhibition of TNF-α induced reactivation); 0.4 ± 0.07 µM in [10] (Human immunodeficiency virus 1, PBMC); 2.1 ± 0.3 µM in series [11] (Human immunodeficiency virus 1, Macrophage). Also, the “Detection in plasma and brain samples” value in [6] (1, 4, 8, 24 h after 10 or 50 mg/kg SC, limit of detection 5.5 ng/mL) is “detected in all plasma and brain samples except for 24 h plasma samples at 10 mg/kg”. For the same molecule, in series [6] (10 and 50 mg/kg SC, mouse), the Blood-brain barrier penetration result is “can penetrate mouse BBB”. For the same molecule, the Cmax (commonly the peak of the concentration-time curve) in series [6] (mouse, brain (posterior fossa: cerebellum and brainstem), 10 mg/kg single SC, read-out: Cmax in the brain) is around 40 ng/g; in [6] (mouse, brain (posterior fossa: cerebellum and brainstem), 50 mg/kg single SC, read-out: Cmax in the brain), around 75 ng/g; in series [6] (mouse, plasma, 10 mg/kg single SC, read-out: Cmax in plasma), around 200 ng/mL; in series [6] (mouse, plasma, 50 mg/kg single SC, read-out: Cmax in plasma), around 1400 ng/mL. The Toxicity entry in series [9] is “not toxic”. Also, the “Activated astrocytes (GFAP+; astrogliosis) in brain” value in series [12] (10 mg/kg qd SC) and in [12] (50 mg/kg qd SC) was “reduced” in each case. The “Percentage of activated mouse mononuclear phagocytes (MHCII/CD45 double positive cells) in brain” value in series [12] (10 mg/kg qd SC) and in series [12] (50 mg/kg qd SC) was “significantly reduced” each time. The “Activated p24+ human Mϕ in brain” value in [12] (50 mg/kg qd SC (high dose)) is listed as “significantly reduced”.
As to `Nc1ccn([C@@H]2CS[C@H](CO)O2)c(=O)n1` [3TC], the “Effect on PMA induced reactivation (dose response, Figure S1 D)” value in series [4] (macrophages) was “did not have any effect”. The “Effect on HIV-induced activation markers HLA-DR/CD163 double positive macrophages (dose response, Figure S1 F)” value in series [5] is recorded as “did not have any effect”. Also, in series [7], the “Effect on frequency of non-dividing latent CD4 T cells (dose response, Figure S1 E)” value is “did not have any effect”. The “Effect on TNF-a induced reactivation (dose response, Figure S1 C)” value in series [8] is listed as “did not have any effect”. For the same molecule, the EC50 – broadly, the concentration needed to bring the measured effect to its halfway point – in series [10] (primary activated PBM cells, read-out: EC50 inhibition of HIV replication in PBM cells) turned out to be 0.01 µM; in series [11] (primary human Mϕ, read-out: EC50 inhibition of HIV replication in macrophages), 0.1 µM. Also, the EC90 was 0.9 µM in [10] (primary activated PBM cells) and 1.2 µM in series [11] (primary human Mϕ).
As for `C[C@@H]1CCN(C(=O)CC#N)C[C@@H]1N(C)c1ncnc2[nH]ccc12` [tofacitinib], in [1], the “Reactivation of latent HIV from T cells” value is listed as “block the reactivation”.
